Measured values: ChEMBL document CHEMBL1201862, “PubChem BioAssay data set” (2004)
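Test compounds were applied to cells in 96-well plates for 48 hours at 5 doses. GI50 is the concentration that inhibits growth by half.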 Activity calls are given as the source filed them. Cut-off read from the data, not from the text of the source: active = GI50 up to about 1.1 µM and inactive = higher.

Columns and labels:
Test in all cases: NCI anticancer screen, dose series, 48 h
HL-60 = system: HL-60
T47D = system: T47D
SK-MEL-2 = system: SK-MEL-2
SF-268 = system: SF-268
LOX IMVI = system: LOX IMVI
RXF 393 = system: RXF 393
SK-MEL-5 = system: SK-MEL-5
HOP-62 = system: HOP-62
MCF7 = system: MCF7
DU-145 = system: DU-145
IGROV-1 = system: IGROV-1
CCRF-CEM = system: CCRF-CEM
HOP-92 = system: HOP-92
OVCAR-4 = system: OVCAR-4
HCC 2998 = system: HCC 2998
MDA-MB-435 = system: MDA-MB-435
NCI-H23 = system: NCI-H23
CAKI-1 = system: CAKI-1
BT-549 = system: BT-549
SR = system: SR

Measured: GI50

COC1(O)C(=O)c2ccccc2OC1(OC)c1ccccc1 (stereo not given)
inactive: HL-60 50.4 µM | T47D > 100 µM | SK-MEL-2 > 100 µM | SF-268 > 100 µM | LOX IMVI 65.9 µM | RXF 393 > 100 µM | SK-MEL-5 > 100 µM | HOP-62 > 100 µM | MCF7 48.9 µM | DU-145 > 100 µM | IGROV-1 > 100 µM | CCRF-CEM 46.8 µM | HOP-92 > 100 µM | OVCAR-4 > 100 µM | HCC 2998 > 100 µM | MDA-MB-435 > 100 µM | NCI-H23 > 100 µM | CAKI-1 > 100 µM | BT-549 > 100 µM | SR 50.4 µM

CCOC(=O)c1ccc(/N=c2\oc3ccc(OC)cc3cc2-c2nc3ccccc3[nH]2)cc1
inactive: HL-60 > 100 µM | T47D > 100 µM | SK-MEL-2 > 100 µM | SF-268 > 100 µM | LOX IMVI > 100 µM | RXF 393 40.6 µM | SK-MEL-5 5.66 µM | HOP-62 54.6 µM | MCF7 36.5 µM | DU-145 > 100 µM | IGROV-1 > 100 µM | CCRF-CEM > 100 µM | HOP-92 > 100 µM | OVCAR-4 > 100 µM | HCC 2998 86.5 µM | MDA-MB-435 30.5 µM | NCI-H23 10.4 µM | CAKI-1 > 100 µM | BT-549 > 100 µM | SR 59.3 µM
